What all share (assay): inhibition of tumour cell growth, NCI panel, 48 h
Experiment [1] relates to CCRF-CEM.
Experiment [2] concerns HCC 2998.
The test system of experiment [3] is HCT-116.
The subject of experiment [4] is HCT-15.
The subject of experiment [5] is HL-60.
For experiment [6], the system named is HOP-62.
Experiment [7] deals with K562.
The test system of experiment [8] is MCF7.
For experiment [9], the system named is MDA-MB-231.
For experiment [10], the system named is MDA-MB-435.
The subject of experiment [11] is MOLT-4.
For experiment [12], the system named is OVCAR-3.
Experiment [13] relates to OVCAR-8.
Experiment [14] concerns PC-3.
In experiment [15] the test system is SF-295.
In experiment [16] the test system is SN12C.
Experiment [17] has as its system SR.
Experiment [18] relates to SW-620.
The subject of experiment [19] is U-251.
For experiment [20], the system named is A498.

We go through eleven compounds from ChEMBL document CHEMBL1201862, “PubChem BioAssay data set” (2004).

The structures appear in SMILES notation.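 Growth conditions: 96-well plates. Treatment: test compound, 48 hours, 5 concentrations. Analysis: linear interpolation between bracketing concentrations; unreached endpoints set to highest concentration. GI50 is the concentration that inhibits growth by half.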 The source made the active and inactive calls. Cut-off read from the data, not from the text of the source: active = GI50 up to about 1.1 µM and inactive = higher. Where a SMILES comes first, the peptide text is derived from it. The star is where a group is joined. Boc = CC(C)(C)OC(=O)*; tBu = CC(C)(C)*

For `CCC(=O)N1C(=O)C(CC)(CC)C(=O)N1C(=O)CC`, the GI50 in experiment [1] is > 100 µM (inactive); in experiment [2], > 100 µM (inactive); in [3], > 100 µM (inactive); in experiment [4], above 100 µM; in [5], > 100 µM (inactive); in experiment [6], > 100 µM (inactive). Further, the GI50 in [7], in experiment [8], in [9], in experiment [10], in [11] and in experiment [12] was > 100 µM (inactive) in each case. The GI50 in [13], in [14], in experiment [15], in experiment [16], in [17] and in experiment [18] was > 100 µM (inactive) in each case. Besides, the GI50 in experiment [19] was > 100 µM (inactive).
On to `COc1cc(OC)c(OC)cc1/C=C/c1ccc2ccccc2n1`, for which the GI50 in experiment [1] is 6.17 µM (inactive); in experiment [2], > 10 µM (inactive); in experiment [3] it was 3.72 µM (inactive); in experiment [4], 7.62 µM; in experiment [5] it was 3.27 µM (inactive); in experiment [6], > 10 µM (inactive). Besides, the GI50 in experiment [7] was 5.33 µM (inactive); in [8], 9.57 µM (inactive); in [9], > 10 µM (inactive); in experiment [10], 7.23 µM (inactive); in experiment [11], 3.78 µM (inactive); in experiment [12], > 10 µM (inactive). Further, the GI50 in [13] is > 10 µM (inactive); in [14] it was 6.08 µM (inactive); in experiment [15], 9.71 µM (inactive); in [16] it was > 10 µM (inactive); in experiment [17], 3.57 µM (inactive); in experiment [18], > 10 µM (inactive). In addition, the GI50 in experiment [19] was > 10 µM (inactive).
As to `O=c1c(S(=O)(=O)Oc2ccccc2)coc2cc(F)ccc12`, the GI50 in experiment [1] is 65.3 µM (inactive); in experiment [2], > 100 µM (inactive); in experiment [3], > 100 µM (inactive); in [4], above 100 µM; in [6], > 100 µM (inactive); in [7], > 100 µM (inactive). Further, the GI50 is 74.8 µM (inactive) in [8]; > 100 µM (inactive) in experiment [9]; > 100 µM (inactive) in experiment [10]; > 100 µM (inactive) in experiment [11]; > 100 µM (inactive) in [12]; > 100 µM (inactive) in [13]. Also, the GI50 in [14] is > 100 µM (inactive); in experiment [15], 30.3 µM (inactive); in experiment [16], > 100 µM (inactive); in [17], > 100 µM (inactive); in experiment [18], > 100 µM (inactive); in [19], > 100 µM (inactive).
As to `COc1ccccc1Nc1nc2c([nH]1)c(=O)n(C)c(=O)n2C`, the GI50 in experiment [1] was > 10 µM (inactive); in [2], > 10 µM (inactive); in experiment [4], above 10 µM; in [5], > 10 µM (inactive); in [6], > 10 µM (inactive); in [7], > 10 µM (inactive). For the same compound, the GI50 in experiment [8], in [9], in experiment [10], in experiment [11], in [13] and in experiment [14] was > 10 µM (inactive) in each case. Besides, the GI50 in experiment [15], in experiment [16], in [17] and in experiment [18] was > 10 µM (inactive) throughout.
Consider `Cc1nn(C(=O)c2ccncc2)c2c1C(c1ccccc1)SC(=N)N2` (configuration not stated), for which the GI50 in experiment [1] was > 10 µM (inactive); in experiment [2], > 10 µM (inactive); in experiment [3], > 10 µM (inactive); in experiment [4], above 10 µM; in experiment [5] it was > 10 µM (inactive); in experiment [6] it was > 10 µM (inactive). Moreover, the GI50 in experiment [7], in [8], in experiment [9], in experiment [10], in experiment [11] and in experiment [12] was > 10 µM (inactive) in each case. In addition, the GI50 in [13], in [14], in [15], in experiment [16], in [17] and in experiment [18] was > 10 µM (inactive) throughout. In addition, in [19], the GI50 is > 10 µM (inactive).
On to `CC(OC(C)(C)C)C(NC(=O)C(N)CCCCNC(=O)OC(C)(C)C)C(=O)NC(Cc1ccccc1)C(=O)O` (configuration not stated) (H-Lys(Boc)-Thr(tBu)-Phe-OH; configuration not given here), for which the GI50 in [1] was > 100 µM (inactive); in experiment [2] it was > 100 µM (inactive); in experiment [3] it was > 100 µM (inactive); in experiment [4] it was above 100 µM; in experiment [5], > 100 µM (inactive); in [6], > 100 µM (inactive). For the same compound, the GI50 in [7], in [8], in experiment [9], in [10], in [11] and in experiment [12] was > 100 µM (inactive) each time. The GI50 in experiment [13], in experiment [14], in experiment [15], in experiment [16], in [17] and in [18] was > 100 µM (inactive) in each case. Also, the GI50 in experiment [19] was > 100 µM (inactive).
Consider `CNN1C(=O)c2c(C)c(C)c(C#N)c(N)c2C1=O`, for which the GI50 is > 100 µM (inactive) in experiment [1]; > 100 µM (inactive) in experiment [2]; > 100 µM (inactive) in [3]; above 100 µM in experiment [4]; > 100 µM (inactive) in experiment [5]; > 100 µM (inactive) in experiment [7]. Also, the GI50 in [8], in [9], in [10], in [11], in experiment [12] and in [13] was > 100 µM (inactive) in each case. For the same compound, the GI50 in experiment [14], in [15], in experiment [16], in [17], in experiment [18] and in experiment [19] was > 100 µM (inactive) throughout.
Consider `CCNCCNc1c2ccccc2nc2ccccc12`, for which the GI50 is 1.29 µM (inactive) in experiment [1]; 0.127 µM (active) in [2]; 0.515 µM (active) in experiment [3]; 1.48 µM in experiment [4]; 2.24 µM (inactive) in experiment [5]; 0.461 µM (active) in experiment [6]. Also, the GI50 was 0.551 µM (active) in experiment [7]; 0.565 µM (active) in experiment [8]; 1.24 µM (inactive) in experiment [9]; 1.21 µM (inactive) in experiment [10]; 0.54 µM (active) in experiment [11]; 4.05 µM (inactive) in experiment [12]. The GI50 was 1.81 µM (inactive) in experiment [13]; 0.828 µM (active) in [14]; 1.21 µM (inactive) in [15]; 0.938 µM (active) in experiment [16]; 0.594 µM (active) in [17]; 0.147 µM (active) in [18].
As for `COc1ccc2c(c1OC)C(=O)N/C2=C\c1c(CCN(C)C)cc2c(c1OC)OCO2`, the GI50 in experiment [1] is > 100 µM (inactive); in experiment [2] it was > 100 µM (inactive); in experiment [3] it was 83.2 µM (inactive); in experiment [4], above 100 µM; in experiment [5], > 100 µM (inactive); in [6] it was > 100 µM (inactive). Also, the GI50 was 68.7 µM (inactive) in [7]; > 100 µM (inactive) in experiment [8]; 41.1 µM (inactive) in experiment [9]; 31.5 µM (inactive) in [10]; > 100 µM (inactive) in experiment [11]; > 100 µM (inactive) in experiment [12]. The GI50 in experiment [13] is > 100 µM (inactive); in experiment [14], > 100 µM (inactive); in experiment [15] it was 43.7 µM (inactive); in experiment [16], > 100 µM (inactive); in experiment [17] it was > 100 µM (inactive); in [18], > 100 µM (inactive). Besides, the GI50 in [19] was > 100 µM (inactive).
`CNc1cc(N)ccc1C(=O)N1CCC[C@H]1CO`: the GI50 is > 100 µM (inactive) in experiment [20]; > 100 µM (inactive) in [3]; above 100 µM in [4]; > 100 µM (inactive) in [6]; > 100 µM (inactive) in experiment [7]; > 100 µM (inactive) in experiment [8]. For the same compound, the GI50 in experiment [9], in experiment [10], in [11], in experiment [12], in [13] and in [14] was > 100 µM (inactive) throughout. Also, the GI50 in experiment [15], in experiment [16], in experiment [17], in experiment [18] and in [19] was > 100 µM (inactive) each time.
Turning to `Cc1ccc(C(=O)C#Cc2cn(C3CC(O)C(CO)O3)c(=O)[nH]c2=O)cc1` (configuration not stated), the GI50 in [2] is > 100 µM (inactive); in experiment [3], 62.2 µM (inactive); in experiment [4] it was above 100 µM; in [6], > 100 µM (inactive); in experiment [8] it was 47.6 µM (inactive); in experiment [9], > 100 µM (inactive). The GI50 in experiment [10] is > 100 µM (inactive); in experiment [12], 26.2 µM (inactive); in experiment [13], > 100 µM (inactive); in experiment [14], > 100 µM (inactive); in experiment [15], > 100 µM (inactive); in experiment [16], > 100 µM (inactive). Besides, the results for the GI50 in [17], in [18] and in experiment [19] were 35.2 µM (inactive), 31 µM (inactive) and > 100 µM (inactive), respectively.
